{"source": "patent US8815776B2", "about": "“Herbicidal compositions and method of use thereof” (Proactive, LLC, priority 2011, dated 2014)", "assay": "Solubility of prodiamine in solvents", "assay_type": "physicochemical", "text": "The aprotic solvent is preferably a pyrrolidone such as NMP, though one or more of dimethylsulfoxide (DMSO), dimethylformamide, and gamma-Butyrolactone alone or in mixtures, including mixtures with NMP, are useful. DMSO and gamma-Butyrolactone dissolve 0.24 to 0.25 grams prodiamine per gram solvent. NMP dissolves 0.68 grams prodiamine per gram solvent. The aprotic solvent is the primary solvent in most embodiments of the EC.\nThere are a number of solvents that are not suitable and would be included only to change the composition.\nFatty amides, also called “fatty acid solvents” in this application, are amides formed from a fatty acid and an amine, of which many are known. Preferred are di-substituted fatty acid amides, which include as non-limiting examples N,N-dimethylcaprylamide (available from Cognis as Agnique™ KE-3658), and […] (available as Halcomid™ M8-10). These compounds can fully or partially replace aprotic solvents, and the solvating capacity approaches that of less-preferred aprotic solvents such as DMSO and gamma-Butyrolactone, that is, 0.24 to 0.25 grams prodiamine per gram solvent. A mixture of C8 and C10 fatty acid dimethylamide, (CAS 1118-92-9 and 14433-76-2) are useful.", "data": [{"smiles": "CCCN(CCC)c1c([N+](=O)[O-])cc(C(F)(F)F)c(N)c1[N+](=O)[O-]", "note": "[prodiamine, N3,N3-di-n-propyl-2,4-dinitro-6-(trifluoromethyl)-m-phenylenediamine]", "values": [{"measurement": "Solubility, g prodiamine/g solvent", "setting": "solvent Aromatic 150 (Aromatic Hydrocarbon)", "result": 0.080, "unit": "g prodiamine/g solvent"}, {"measurement": "Solubility, g prodiamine/g solvent", "setting": "solvent Aromatic 200 (Aromatic Hydrocarbon)", "result": 0.070, "unit": "g prodiamine/g solvent"}, {"measurement": "Solubility, g prodiamine/g solvent", "setting": "solvent Carbitol TM (Diethylene glycol monomethyl ether)", "result": 0.010, "unit": "g prodiamine/g solvent"}, {"measurement": "Solubility, g prodiamine/g solvent", "setting": "solvent DEGEE (Diethylene glycol monoethyl ether)", "result": 0.050, "unit": "g prodiamine/g solvent"}, {"measurement": "Solubility, g prodiamine/g solvent", "setting": "solvent Glycol DPM (Dipropylene glycol methyl ether)", "result": 0.008, "unit": "g prodiamine/g solvent"}, {"measurement": "Solubility, g prodiamine/g solvent", "setting": "solvent Glycol Ether EB (Diethylene glycol monobutyl ether)", "result": 0.020, "unit": "g prodiamine/g solvent"}, {"measurement": "Solubility, g prodiamine/g solvent", "setting": "solvent Jefsol 1555 (Proprietary Solvent (Carbonate))", "result": 0.004, "unit": "g prodiamine/g solvent"}, {"measurement": "prodiamine dissolved per gram solvent", "setting": "solvent NMP", "result": "0.68 grams prodiamine per gram solvent"}]}]}
